Reference: patent US6562993B1, “Preservative compounds” (ISP Investments Inc., priority 2002, dated 2003)

Legend:
Assay in all cases: Minimum Inhibitory Concentration (MIC) Test, serial dilution
Type in all cases: cell-based
[1] = test system: Burkholderia cepacia ATCC 25416; settings: B. cepacia; weight percent of active ingredients; propylene glycol solvent
Experimental: (§1) The Minimum Inhibitory Concentration (MIC) Test is an in vitro serial dilution procedure to assess antimicrobial activity. The MIC of a substance is the minimum concentration that will inhibit the growth of test organisms. Two species each of bacteria and fungi were included in the evaluation.
(§2) Cultiloop™ transfer cultures were used, and the bacteria were cultured on Brain Heart Infusion agar for 24 hours at 37° C. A saline suspension of each bacterial species was prepared and standardized on the spectrophotometer to the organism inoculum concentration. The yeast culture (Candida) was grown on a slant of Saboraud Dextrose agar for 48 hours at 27° C., and the slant was then washed with saline to prepare the inoculum. The mold culture (Aspergillus) was incubated for 7-10 days at 27° C. until sporulation occurred. The mold inoculum was prepared by washing the mature slant and harvesting the spores after filtration through sterile gauze.
(§3) The results are summarized in the Table below, where the concentrations refer to the weight percents of active ingredients.

[2] = test system: Candida albicans ATCC 10231; settings: C. albicans; weight percent of active ingredients; propylene glycol solvent
Experimental: as §1, §2, §3

[3] = test system: Aspergillus niger ATCC 16404; settings: A. niger; weight percent of active ingredients; propylene glycol solvent
Experimental: as §1, §2, §3

[4] = test system: Staphylococcus aureus ATCC 6538; settings: S. aureus; weight percent of active ingredients; propylene glycol solvent
Experimental: as §1, §2, §3

SMILES | MIC Cidal [1] | MIC Static [1] | MIC Cidal [2] | MIC Static [2] | MIC Cidal [3] | MIC Static [3] | MIC Cidal [4] | MIC Static [4]
CC(Br)(C#N)CCC#N (stereo not shown) [Compound II, 2-bromo-2-methylglutaronitrile] | <0.05% | <0.05% | <0.05% | <0.05% | 0.10% | <0.05% | 0.10% | <0.05%
N#CCCC(Br)(C#N)CBr (stereo not shown) [Merguard ®, 1,2-dibromo-2,4-dicyanobutane] | <0.05% | <0.05% | <0.05% | <0.05% | <0.05% | <0.05% | <0.05% | <0.05%
